Results: patent publication US20260048064A1, “AMORPHOUS SOLID DISPERSIONS COMPRISING NAPORAFENIB” (Novartis AG, priority 2022, published 2026)
In brackets after ≈: the same amount, converted by molar mass. Counter-ions that a name gives are not always drawn.

Key:
Format in all cases: physicochemical
[1] = Solubility at 25° C. in SGF, FaSSIF, FeSSIF (Table 1A)
Experimental: (§1) Several physical forms of Compound A were analyzed: the free base, tartrate salt, and tosylate salt.

[2] = Light stability, 1.2 MLux h (Table 1A)
Experimental: as §1

[3] = Bulk stability at 80° C./75% RH, 1 week (Table 1A)
Experimental: as §1

[4] = Hygroscopicity (Table 1A)
Experimental: as §1

[5] = Stability in aqueous solutions (Table 1A)
Experimental: as §1

[6] = Solubility at various pH and in biorelevant media (Table 1B)
Text: Compound A has very limited solubility in all pHs.

Polymorphism (Table 1A) = test: Polymorphism (Table 1A)
Experimental: as §1

[7] = Photostability under light stress (Table 1C); settings: RT, light dose 1.2 Lux·h*10^6
Text: The photostability of crystalline hydrate and crystalline tosylate forms of Compound A under photo, or light stress is provided in Table 1C.

[8] = Stability in solution/suspension at pH 1, 4.5, 7.4 under heat (Table 1E); settings: 5 days
[9] = Bulk solid stability under thermal stress (Table 1D); settings: 5 days

## Cc1ccc(NC(=O)c2ccnc(C(F)(F)F)c2)cc1-c1cc(OCCO)nc(N2CCOCC2)c1 [Compound A (free base), N-(3-(2-(2-hydroxyethoxy)-6-morpholinopyridin-4-yl)-4-methylphenyl)-2-(trifluoromethyl)isonicotinamide]
[1]; FaSSIF
  Solubility at 25° C.: 1.4 µg/mL (≈ 2.79 µM)
  pH final of solubility test: 6.91
[1]; FeSSIF
  pH final of solubility test: 6.08
[1]; FeSSIF, 25 °C, thermodynamic from solid
  Solubility: 137 µg/mL (≈ 273 µM)
[1]; SGF
  Solubility at 25° C.: 2.1 µg/mL (≈ 4.18 µM)
  pH final of solubility test: 2.02
[2]
  Light stability (1.2 MLux h): Slight degradation
[3]
  Bulk stability (degradation): week), slight
[4]
  Hygroscopicity: Low
[5]; pH 1.2 and pH 10.0
  Stability in aqueous solutions: Significant degradation
[5]; pH 2.9 to 6.8
  Stability in aqueous solutions: Relatively stable at pH
[6]; FaSSIF V2
  Solubility: 35 µg/mL (≈ 69.7 µM)
  pH final of solubility test: 6.51
[6]; FeSSIF V2
  Solubility: 576 µg/mL (≈ 1150 µM)
  pH final of solubility test: 5.82
[6]; SGF pH 2.0
  Solubility: 699 µg/mL (≈ 1390 µM)
  pH final of solubility test: 1.86
[6]; Water
  Solubility: 2 µg/mL (≈ 3.98 µM)
  pH final of solubility test: 7.33
[6]; pH 1
  Solubility: 400 µg/mL (≈ 796 µM)
  pH final of solubility test: 1.07
[6]; pH 2
  Solubility: 140 µg/mL (≈ 279 µM)
  pH final of solubility test: 1.96
[6]; pH 4.5
  pH final of solubility test: 4.56
[6]; pH 4.5, aqueous buffer, thermodynamic from solid, pH 4.5, read-out: Solubility
  Solubility: 2 µg/mL (≈ 3.98 µM)
[6]; pH 7.4
  pH final of solubility test: 7.33
[6]; pH 7.4, aqueous buffer, thermodynamic from solid, pH 7.4, read-out: Solubility
  Solubility: 1 µg/mL (≈ 1.99 µM)
Polymorphism (Table 1A)
  Polymorphism: Yes

## Cc1ccc(NC(=O)c2ccnc(C(F)(F)F)c2)cc1-c1cc(OCCO)nc(N2CCOCC2)c1 [Compound A (hydrate), N-(3-(2-(2-hydroxyethoxy)-6-morpholinopyridin-4-yl)-4-methylphenyl)-2-(trifluoromethyl)isonicotinamide]
[7]; Bulk
  Appearance/XRPD/DSC: No change
  Degradation Products [%] (HPLC): <1.0%
[7]; Ethanol
  Degradation Products [%] (HPLC): 18%
[6]; FaSSIF V2
  Solubility: 4 µg/mL
  pH final of solubility test: 6.44
[6]; FeSSIF V2
  Solubility: 47 µg/mL
  pH final of solubility test: 5.6
[6]; SGF pH 2.0
  Solubility: 25 µg/mL
  pH final of solubility test: 2.19
[6]; Water
  Solubility: 1 µg/mL
  pH final of solubility test: 5.99
[6]; pH 1
  Solubility: 170 µg/mL
  pH final of solubility test: 1.23
[6]; pH 4.5
  Solubility: 1 µg/mL
  pH final of solubility test: 4.0
[6]; pH 7.0
  Solubility: 0.8 µg/mL
  pH final of solubility test: 7.0

## Cc1ccc(NC(=O)c2ccnc(C(F)(F)F)c2)cc1-c1cc(OCCO)nc(N2CCOCC2)c1 [Compound A (tartrate salt), N-(3-(2-(2-hydroxyethoxy)-6-morpholinopyridin-4-yl)-4-methylphenyl)-2-(trifluoromethyl)isonicotinamide]
[1]; FaSSIF
  Solubility at 25° C.: 0.6 µg/mL
  pH final of solubility test: 3.54
[1]; FeSSIF
  Solubility at 25° C.: 109.2 µg/mL
  pH final of solubility test: 4.93
[1]; SGF
  Solubility at 25° C.: 53.5 µg/mL
  pH final of solubility test: 1.89
[2]
  Light stability (1.2 MLux h): Significant degradation
[3]
  Bulk stability (degradation): week), significant
[4]
  Hygroscopicity: High
[5]; pH 1.2 and pH 10.0
  Stability in aqueous solutions: Significant degradation
[5]; pH 2.9 to 6.8
  Stability in aqueous solutions: Relatively stable at pH
Polymorphism (Table 1A)
  Polymorphism: Potential issue

## Cc1ccc(NC(=O)c2ccnc(C(F)(F)F)c2)cc1-c1cc(OCCO)nc(N2CCOCC2)c1 [Compound A (tosylate salt), N-(3-(2-(2-hydroxyethoxy)-6-morpholinopyridin-4-yl)-4-methylphenyl)-2-(trifluoromethyl)isonicotinamide]
[7]; Bulk
  Appearance/XRPD/DSC: No change
  Degradation Products [%] (HPLC): <1.0%
[7]; Ethanol
  Degradation Products [%] (HPLC): 97%
[1]; FaSSIF
  Solubility at 25° C.: 1.1 µg/mL
  pH final of solubility test: 6.66
[1]; FeSSIF
  Solubility at 25° C.: 115.8 µg/mL
  pH final of solubility test: 5.58
[1]; SGF
  Solubility at 25° C.: 10 µg/mL
  pH final of solubility test: 1.75
[2]
  Light stability (1.2 MLux h): No degradation
[3]
  Bulk stability (degradation): 75% RH (1 week), no
  Bulk stability (physical): Physically unstable at 80° C./
[4]
  Hygroscopicity: Low
[6]; FaSSIF V2
  Solubility: 16 µg/mL
  pH final of solubility test: 6.07
[6]; FeSSIF V2
  Solubility: 51 µg/mL
  pH final of solubility test: 5.41
[6]; SGF pH 2.0
  Solubility: 29 µg/mL
  pH final of solubility test: 2.02
[6]; Water
  Solubility: 5140 µg/mL
  pH final of solubility test: 2.71
[6]; pH 1
  Solubility: 106 µg/mL
  pH final of solubility test: 1.23
[6]; pH 4.5
  Solubility: 2 µg/mL
  pH final of solubility test: 3.85
[6]; pH 7.0
  Solubility: 2 µg/mL
  pH final of solubility test: 6.83
Polymorphism (Table 1A)
  Polymorphism: No issue encountered
[8]; pH 1, 50 ° C.
  Parent remaining [%] (HPLC): 23%
[8]; pH 1, 80 ° C.
  Parent remaining [%] (HPLC): 0.2%
[8]; pH 1, RT
  Parent remaining [%] (HPLC): 97%
[8]; pH 4.5, 50 ° C.
  Parent remaining [%] (HPLC): >99%
[8]; pH 4.5, 80 ° C.
  Parent remaining [%] (HPLC): 98.6%
[8]; pH 4.5, RT
  Parent remaining [%] (HPLC): >99%
[8]; pH 7.4, 50 ° C.
  Parent remaining [%] (HPLC): 97%
[8]; pH 7.4, 80 ° C.
  Parent remaining [%] (HPLC): 74%
[8]; pH 7.4, RT
  Parent remaining [%] (HPLC): >99%
[9]; 50 ° C.
  Appearance/XRPD/DSC: No change
  Parent remaining [%] (HPLC): >99%
[9]; 80 ° C.
  Appearance/XRPD/DSC: No change
  Parent remaining [%] (HPLC): >99%
[9]; RT
  Appearance/XRPD/DSC: No change
  Parent remaining [%] (HPLC): >99%
